Experimental findings from ChEMBL document CHEMBL1201862, “PubChem BioAssay data set” (2004) are described below.

Each structure is given as a SMILES string. The source made the active and inactive calls.

Targets include Cytochrome P450 2D6 (Homo sapiens, UniProt P10635); Cytochrome P450 3A4 (Homo sapiens, UniProt P08684); Cytochrome P450 2C9 (Homo sapiens, UniProt P11712).
For a further test, the target named is Cytochrome P450 2C19 (Homo sapiens, UniProt P33261). Kind of test: Cytochrome panel assay with activity outcomes. Panel member name: p450-cyp2c19 Compounds with AC50 equal or less than 10 uM are considered active. In kind it is functional. As to conditions: read-out: AC50.
In a further test the target is T1, Cytochrome P450 1A2 (Homo sapiens, UniProt P05177).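 Also: PubChem cytochrome P450 panel assay, CYP1A2 panel member.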
T1 sequence (P05177 whole entry): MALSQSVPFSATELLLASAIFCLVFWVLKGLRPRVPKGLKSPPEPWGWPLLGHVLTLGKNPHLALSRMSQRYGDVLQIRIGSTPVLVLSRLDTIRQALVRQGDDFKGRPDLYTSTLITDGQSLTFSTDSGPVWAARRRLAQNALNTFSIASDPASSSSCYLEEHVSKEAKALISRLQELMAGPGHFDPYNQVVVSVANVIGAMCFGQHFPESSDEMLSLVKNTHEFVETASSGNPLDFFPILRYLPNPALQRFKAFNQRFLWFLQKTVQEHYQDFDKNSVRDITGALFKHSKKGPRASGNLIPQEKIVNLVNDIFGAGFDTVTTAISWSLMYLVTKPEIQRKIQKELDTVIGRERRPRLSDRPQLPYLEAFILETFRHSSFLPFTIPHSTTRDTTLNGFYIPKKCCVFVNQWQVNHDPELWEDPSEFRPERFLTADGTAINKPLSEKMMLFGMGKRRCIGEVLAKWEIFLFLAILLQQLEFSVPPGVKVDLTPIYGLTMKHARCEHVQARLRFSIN

Test [1] is described as follows: microbe, parasite or virus in culture. It is filed as functional. As to conditions: Mycobacterium tuberculosis.
Test [2] deals with T2, Calpain-2 catalytic subunit (Sus scrofa, UniProt P43367).
T2 sequence (P43367 whole entry): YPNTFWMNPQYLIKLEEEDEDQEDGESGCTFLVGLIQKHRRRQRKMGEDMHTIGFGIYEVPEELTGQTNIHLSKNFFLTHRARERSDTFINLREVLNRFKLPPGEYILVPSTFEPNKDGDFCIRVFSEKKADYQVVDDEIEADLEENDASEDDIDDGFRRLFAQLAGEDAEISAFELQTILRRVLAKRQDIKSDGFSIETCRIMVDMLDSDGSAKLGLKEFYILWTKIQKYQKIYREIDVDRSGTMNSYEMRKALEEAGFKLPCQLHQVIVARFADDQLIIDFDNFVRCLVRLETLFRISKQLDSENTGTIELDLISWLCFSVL
Kind of test: m-calpain protease blockers, concentration series – biochemical, fluorogenic peptide substrate, dose response (AID 1420). In kind it is functional.

Test [3] deals with Streptococcus sp. 'group A'. The test is described as follows: Streptococcus pyogenes SK(-)GAS viability under kanamycin – luminescence, BacTiterGlo, confirmation, counter-screen for streptokinase expression inhibitor project, dose response (AID 1900). It is filed as functional, organism-based. On the technique in general: Counterscreens check selectivity or assay interference.

Another test addresses T3, Streptokinase A (Streptococcus pyogenes serotype M1, UniProt P10520).
T3 sequence (P10520 whole entry): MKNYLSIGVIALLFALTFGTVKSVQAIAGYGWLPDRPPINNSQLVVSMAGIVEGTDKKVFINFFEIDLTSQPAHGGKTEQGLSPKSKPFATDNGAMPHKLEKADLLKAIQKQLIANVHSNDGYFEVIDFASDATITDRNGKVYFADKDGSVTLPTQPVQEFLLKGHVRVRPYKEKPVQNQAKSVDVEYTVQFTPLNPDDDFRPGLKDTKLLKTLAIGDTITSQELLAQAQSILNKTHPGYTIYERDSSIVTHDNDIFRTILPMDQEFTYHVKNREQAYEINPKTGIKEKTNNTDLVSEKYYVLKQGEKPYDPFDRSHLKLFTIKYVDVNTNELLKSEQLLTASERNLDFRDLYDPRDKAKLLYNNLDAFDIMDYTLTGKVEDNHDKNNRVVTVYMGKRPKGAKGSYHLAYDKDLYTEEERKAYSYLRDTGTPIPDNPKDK
The test is described as follows: viability-normalized secreted streptokinase activity reduction – plasminogen activation absorbance, OD405, dose response (AID 1914).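 Also: secreted streptokinase activity via plasminogen activation per viability signal from cell pellet.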 In kind it is functional, Streptococcus pyogenes M1 GAS.

Another test concerns Streptococcus. Kind of test: GAS UMAA2166 growth inhibition – luminescence, BacTiterGlo, counter-screen for streptokinase expression inhibitor project, dose response (AID 1915).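 Also: potency for reduction of bacterial viability or growth.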 It is filed as functional, organism-based.
Test [4] in a line: Luminescence Cell-Based Dose Retest to Confirm Inhibitors of Cancer Stem Cells. [Related pubchem assays (depositor defined):AID2717, AID2721]. Particulars: Homo sapiens. In kind it is functional.
The nature of test [5]: NIH-3T3 fibroblast cytotoxicity, dose response, cytotoxicity control, cell-based, fluorescence, Alamar Blue, secondary assay (AID 2327).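 Also: NIH-3T3 mouse fibroblasts cultured with fluconazole at 8 µg/mL.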 It is filed as functional. On the technique in general: The colour change of resazurin is a common sign of viable cells or microbes.
The nature of test [6]: fluconazole-exposed Candida albicans growth modulators – fluorescence, retest, confirmation (AID 2467). It is filed as functional, cell-based.
A short description of test [7]: Trypanosoma cruzi growth suppression in host cells – NIH3T3 host cells, beta-gal luminescence, confirmation (AID 2044).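 Also: intracellular parasites grown in NIH/3T3 mouse fibroblasts as host cells; luminescent beta-galactosidase reporter signal from transgenic T. cruzi replicating inside host cells; inhibitors lower the luminescence signal.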 In kind it is functional, cell-based.
A short description of test [8]: NIH3T3 cell viability loss – ATP luminescence, mouse fibroblasts, counter-screen, dose response (AID 2010).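 Also: cells exposed to compound for about 90 hours before reading.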 In kind it is functional, cell-based.
For a further test, the system named is INS1. Kind of test: INS-1E survival protection against cytokine death – cell-based, luminescence, retest, dose response (AID 449756).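 Also: cell death triggered by IL-1 beta plus TNF-alpha plus IFN-gamma mixture; protective hits raise ATP signal compared with cytokine alone wells.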 It is filed as functional. Particulars: Rattus norvegicus.

Cytochrome P450 2C19, sequence (P33261 whole entry): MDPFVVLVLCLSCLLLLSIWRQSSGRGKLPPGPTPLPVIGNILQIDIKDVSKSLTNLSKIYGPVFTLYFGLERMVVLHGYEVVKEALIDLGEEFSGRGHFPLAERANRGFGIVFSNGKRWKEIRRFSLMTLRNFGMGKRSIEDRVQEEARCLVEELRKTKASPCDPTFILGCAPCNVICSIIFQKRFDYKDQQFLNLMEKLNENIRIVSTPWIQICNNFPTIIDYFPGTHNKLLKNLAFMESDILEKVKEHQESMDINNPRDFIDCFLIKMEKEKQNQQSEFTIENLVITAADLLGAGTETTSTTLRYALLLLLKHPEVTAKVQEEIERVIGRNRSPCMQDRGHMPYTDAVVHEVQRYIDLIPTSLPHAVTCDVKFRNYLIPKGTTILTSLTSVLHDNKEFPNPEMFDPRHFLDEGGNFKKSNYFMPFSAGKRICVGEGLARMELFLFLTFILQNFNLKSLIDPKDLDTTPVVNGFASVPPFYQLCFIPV
Cytochrome P450 2D6, sequence (P10635 whole entry): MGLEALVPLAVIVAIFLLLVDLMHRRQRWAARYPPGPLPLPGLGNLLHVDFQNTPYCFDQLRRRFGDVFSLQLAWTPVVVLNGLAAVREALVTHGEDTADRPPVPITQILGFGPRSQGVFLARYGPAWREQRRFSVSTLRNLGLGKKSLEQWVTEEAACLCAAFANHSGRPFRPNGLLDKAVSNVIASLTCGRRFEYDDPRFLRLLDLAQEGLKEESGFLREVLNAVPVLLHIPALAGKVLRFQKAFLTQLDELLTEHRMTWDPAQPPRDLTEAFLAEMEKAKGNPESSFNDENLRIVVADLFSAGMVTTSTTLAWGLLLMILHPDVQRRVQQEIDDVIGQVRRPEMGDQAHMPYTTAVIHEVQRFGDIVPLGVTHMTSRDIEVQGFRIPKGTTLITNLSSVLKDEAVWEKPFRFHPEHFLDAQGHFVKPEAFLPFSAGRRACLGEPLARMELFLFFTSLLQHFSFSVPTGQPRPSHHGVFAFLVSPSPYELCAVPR
Cytochrome P450 2C9, sequence (P11712 whole entry): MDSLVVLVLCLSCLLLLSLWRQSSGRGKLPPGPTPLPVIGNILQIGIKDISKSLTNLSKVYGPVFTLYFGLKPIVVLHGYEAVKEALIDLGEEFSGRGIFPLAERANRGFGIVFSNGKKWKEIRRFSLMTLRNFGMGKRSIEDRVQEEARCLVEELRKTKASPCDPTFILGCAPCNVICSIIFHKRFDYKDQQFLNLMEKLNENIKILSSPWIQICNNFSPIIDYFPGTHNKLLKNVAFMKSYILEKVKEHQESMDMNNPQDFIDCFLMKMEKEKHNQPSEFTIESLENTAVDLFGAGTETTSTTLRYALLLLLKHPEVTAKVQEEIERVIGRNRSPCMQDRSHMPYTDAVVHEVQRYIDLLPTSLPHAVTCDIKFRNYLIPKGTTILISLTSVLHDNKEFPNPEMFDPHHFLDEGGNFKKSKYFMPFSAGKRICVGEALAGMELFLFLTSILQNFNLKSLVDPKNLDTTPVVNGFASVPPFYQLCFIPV
Cytochrome P450 3A4, sequence (P08684 whole entry): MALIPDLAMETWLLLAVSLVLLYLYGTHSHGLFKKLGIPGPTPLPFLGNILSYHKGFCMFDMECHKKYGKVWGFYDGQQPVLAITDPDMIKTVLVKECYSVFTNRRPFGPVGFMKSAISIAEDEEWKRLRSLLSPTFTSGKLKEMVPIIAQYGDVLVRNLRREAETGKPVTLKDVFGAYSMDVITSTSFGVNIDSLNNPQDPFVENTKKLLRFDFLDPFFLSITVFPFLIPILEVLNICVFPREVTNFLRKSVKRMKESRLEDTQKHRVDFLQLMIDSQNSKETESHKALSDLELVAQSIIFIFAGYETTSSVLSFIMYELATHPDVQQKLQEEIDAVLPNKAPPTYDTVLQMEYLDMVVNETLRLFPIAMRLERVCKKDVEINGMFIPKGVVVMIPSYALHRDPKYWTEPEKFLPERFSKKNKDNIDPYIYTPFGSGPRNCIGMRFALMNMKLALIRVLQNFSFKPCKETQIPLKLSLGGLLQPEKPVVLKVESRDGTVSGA

In general, AC50 refers to the concentration giving half of the maximal activity seen. Turning to `c1ccc(CNc2nc(-c3cccnc3)nc3ccccc23)cc1`, the half-maximal activity concentration (AC50) on Cytochrome P450 2C19 was 15.8 µM (active); at Cytochrome P450 2D6, 15.8 µM (active); at Cytochrome P450 1A2 it was 0.398 µM (active).
Regarding `Cc1cccc(N2CCN(CCCNC(=O)c3ccc(NC(=O)C4=CSCCO4)cc3)CC2C)c1` (centres undefined), in test [1], the CC50 was > 40 µM (active).
For orientation: IC50 means the midpoint of a concentration-inhibition curve. Read a low IC50 as higher potency. Regarding `NC(=O)CC(NC(=O)Cc1ccc(Br)cc1)c1ccc(NCC2CC2)c([N+](=O)[O-])c1` (centres undefined), the half-inhibitory concentration (IC50) in test [2] is 14.6 µM (not active).
As to `CCc1ccc(NC(=S)/N=C(\N)Nc2nc(C)c3cc(CC)ccc3n2)cc1`, the CC50 in test [1] is 17.4 µM (active).
With `Cc1ccc(-c2nc3ccccc3o2)cc1NC(=O)Cc1cccs1`, the values for the AC50 at Cytochrome P450 2C19 and on Cytochrome P450 1A2 were 15.8 µM (inconclusive) and 2 µM (inconclusive), respectively.
Consider `CC(=O)NCc1c(Cl)cccc1-n1cccc1`, for which the concentration at half-maximal activity (AC50) is 11.2 µM (inconclusive) at Cytochrome P450 2C19, 15.8 µM (inconclusive) at Cytochrome P450 1A2, 39.8 µM (inconclusive) on Cytochrome P450 3A4 and 28.2 µM (inconclusive) at Cytochrome P450 2C9.
Consider `O=C(c1ccc(Cl)cc1)c1oc2ccccc2c1CS(=O)(=O)c1ccccc1`, for which the IC50 in [2] is > 50 µM (not active).
Turning to `CCOC(=O)N1CCC2(CC1)C(C#N)=C(N)Oc1[nH]nc(CSc3ccc(C)cc3)c12`, the 50% inhibitory concentration (IC50) in test [2] was 3.34 µM (not active).
Consider `c1ccc2c(c1)-c1ccccc1C2N1C[C@H]2CC[C@H](CC2)C1`, for which the AC50 at Cytochrome P450 1A2 was 0.501 µM (inconclusive).
Usually EC50 stands for the concentration at which the effect is half-maximal. As for `CC(C)C[C@H](NC(=O)c1[nH]cnc1C(=O)N[C@H](C)c1ccccc1)C(=O)OC(C)(C)C`, the EC50 in test [3] was 3.86 µM (active); on Streptokinase A, > 150 µM (not active); in the test with Streptococcus it was 9.3 µM (active). Moreover, in test [2], the IC50 is listed as 11.7 µM (not active).
For `FC(F)(F)c1ccccc1-c1cncnc1NCCN1CCOCC1`, the half-maximal activity concentration (AC50) at Cytochrome P450 2C19 is 20 µM (inconclusive); on Cytochrome P450 2D6 it was 15.8 µM (inconclusive); at Cytochrome P450 1A2, 2.51 µM (inconclusive).
Turning to `CCc1ccccc1N(C(C)=O)c1nc(CN=C=S)cs1`, the IC50 in test [2] is on record as 14.5 µM (not active).
Take `SC1=NC[C@H](Cc2ccccc2)N1CCCCC1CCCCC1`: in [2], the IC50 is on record as 7.52 µM (not active). The AC50 in [4] was 6.26 µM (active).
With `Cc1ccc(CNC(=O)Cn2cncn2)cc1`, the figures for the half-maximal activity concentration (AC50) at Cytochrome P450 2D6, at Cytochrome P450 1A2 and at Cytochrome P450 3A4 were 17.8 µM (inconclusive), 39.8 µM (inconclusive) and 14.1 µM (inconclusive), respectively.
Consider `CCOC(=O)c1ccccc1NC(=O)COc1coc(CN2CCc3ccccc32)cc1=O`, for which the CC50 in test [1] is > 40 µM (active).
As to `O=C(O)C1CC=CCC1C(=O)N1CCN(c2nc(-c3ccccc3Cl)c3cc(Br)ccc3n2)CC1` (centres undefined), the CC50 in [1] is 38.3 µM (active).
With `CCc1ccc2oc(-c3ccc(OC)cc3)cc(=Nc3c(C)n(C)n(-c4ccccc4)c3=O)c2c1`, the EC50 in [5] is > 160 µM (inactive); in test [6], > 38 µM (not active); in test [7], 1.94 µM (active); in test [8], > 60 µM (not active). Moreover, the CC50 in test [1] is 27.6 µM (active).
Take `COC(=O)C1CCN(CC(=O)Nc2sc3c(c2C#N)CCC3)CC1`: the AC50 at Cytochrome P450 1A2 is 15.8 µM (inconclusive).
Take `O=C(Nc1cccc(F)c1)N1CCCC2(CCN(C(=O)Oc3ccccc3)CC2)C1`: the AC50 is 25.1 µM (inconclusive) at Cytochrome P450 2C19, 10 µM (inconclusive) on Cytochrome P450 1A2 and 39.8 µM (inconclusive) on Cytochrome P450 2C9.
On to `CCOC(=O)/C(=N/Nc1ccc(OC)cc1)N1CCCc2ccccc21`, for which the CC50 in test [1] was > 40 µM (active).
On to `N=C(N)SCc1cc(Cl)cc(Cl)c1O`, for which the AC50 on Cytochrome P450 1A2 was 5.01 µM (inconclusive).
Turning to `NCCCCNS(=O)(=O)c1cccc2c(Cl)cccc12`, the half-maximal activity concentration (AC50) is 39.8 µM (inconclusive) on Cytochrome P450 2D6, 15.8 µM (inconclusive) on Cytochrome P450 1A2, 25.1 µM (inconclusive) on Cytochrome P450 3A4 and 12.6 µM (inconclusive) on Cytochrome P450 2C9.
In the case of `C=C(C)CNC(=S)N/N=C/c1ccc(NC(C)=O)cc1`, the IC50 in test [2] was 13.5 µM (not active).
In the case of `CCOc1ccc(/C=N/Nc2ccc(Cl)nn2)c(O)c1`, the CC50 in test [1] is 18.4 µM (active). The AC50 in the test with INS1 was 1.77 µM (active).
Regarding `COc1cc(/C=N/NC(=O)COc2cccc(F)c2)ccc1OS(=O)(=O)c1ccc(C)cc1`, the IC50 in test [2] is 2.21 µM (not active).
